Consider 25 molecules from ChEMBL document CHEMBL3132804, “Synthesis and biological evaluation of novel quinoxalinone-based HIV-1 reverse transcriptase inhibitors” (Medchemcomm, 2014).

The test system of assay [1] is Human immunodeficiency virus 1. In words: Antiviral activity against wild type HIV1 VSVG infected in 293ET cells assessed as inhibition of viral replication by luciferase reporter gene assay. The class given is functional, organism-based.
In assay [2] the test system is Human immunodeficiency virus 1. Kind of assay: Selectivity ratio of IC50 for HIV1 VSVG harboring reverse transcriptase Y181C mutant to IC50 for wild type HIV1 VSVG. The assay is classed as functional.
In assay [3] the test system is Human immunodeficiency virus 1. In words: Selectivity ratio of IC50 for HIV1 VSVG harboring reverse transcriptase K103N mutant to IC50 for wild type HIV1 VSVG. The assay is classed as functional.
Assay [4] deals with Human immunodeficiency virus 1. Kind of assay: Antiviral activity against HIV1 VSVG harboring reverse transcriptase Y181C mutant infected in 293ET cellsassessed as inhibition of viral replication by luciferase reporter gene assay. The class given is functional, organism-based.
The subject of assay [5] is Human immunodeficiency virus 1. In words: Antiviral activity against HIV1 VSVG harboring reverse transcriptase K103N mutant infected in 293ET cells assessed as inhibition of viral replication by luciferase reporter gene assay. The assay is classed as functional, organism-based.
[6] abbreviates: Human immunodeficiency virus 1, VSVG, 293ET, read-out: IC50.

With `COC(=O)c1sc(-c2ccccc2)cc1S(=O)(=O)N1c2cc(Cl)ccc2NC(=O)C1C` (stereo unspecified), the IC50 in assay [1] (setting [6]) is 9050 nM.
`COC(=O)c1sccc1S(=O)(=O)N1c2cc(Cl)ccc2NC(=O)C1C` (stereo unspecified): the results for the “Ratio IC50” value in assay [2] and in assay [3] were greater than 50 and 13, respectively. The results for the IC50 in assay [4] and in assay [5] were greater than 10 µM and 2.6 µM, respectively.
For the molecule `COC(=O)c1sc(Br)cc1S(=O)(=O)N1c2cc(Cl)ccc2NC(=O)C1C` (stereo unspecified), the “Ratio IC50” value in assay [2] is greater than 77; in assay [3], 49. Also, the values for the IC50 in assay [4], in assay [5] and in assay [1] (setting [6]) were greater than 10 µM, 6.39 µM and 130 nM, respectively.
As for `COC(=O)c1sc(I)cc1S(=O)(=O)N1c2cc(Cl)ccc2NC(=O)C1C` (stereo unspecified), the “Ratio IC50” value is greater than 133 in assay [2] and 89 in assay [3]. Further, the IC50 in assay [4] was greater than 10 µM; in assay [5] it was 6.68 µM; in assay [1] (setting [6]) it was 75 nM.
Take `CC(C)NC(=O)c1sccc1S(=O)(=O)N1c2cc(Cl)ccc2NC(=O)C1C` (stereo unspecified): in assay [1] (293et), the IC50 entry is “Not Active”.
In the case of `CON(C)C(=O)c1sccc1S(=O)(=O)N1c2cc(Cl)ccc2NC(=O)C1C` (stereo unspecified), the IC50 entry in assay [1] (293et) was “Not Active”.
As to `CC1C(=O)Nc2ccc(Cl)cc2N1S(=O)(=O)c1cc(Cl)sc1CNc1nccs1` (stereo unspecified), in assay [1] (293et), the 50% inhibitory concentration (IC50) result is on record as “Not Active”.
On to `CC1C(=O)Nc2ccc(Cl)cc2N1S(=O)(=O)c1cc(Cl)sc1/C=N\c1nccs1` (stereo unspecified), for which, in assay [1] (293et), the IC50 result is recorded as “Not Active”.
For `CC(C)OC(=O)c1sc(Cl)cc1S(=O)(=O)N1c2cc(Cl)ccc2NC(=O)C1C` (stereo unspecified), the IC50 in assay [1] (setting [6]) was 5550 nM.
Regarding `COC(=O)c1sc(Cl)cc1S(=O)(=O)N1c2cc(Cl)ccc2NC(=O)C1C` (stereo unspecified), the results for the “Ratio IC50” value in assay [2] and in assay [3] were greater than 143 and 113, respectively. For the same molecule, the IC50 was greater than 10 µM in assay [4], 7.94 µM in assay [5] and 70 nM in assay [1] (setting [6]).
For `CC1C(=O)Nc2ccc(Cl)cc2N1S(=O)(=O)c1ccsc1CO` (stereo unspecified), in assay [1] (293et), the IC50 result was “Not Active”.
As for `CC(C)OC(=O)c1sccc1S(=O)(=O)N1c2cc(Cl)ccc2NC(=O)C1C` (stereo unspecified), the “Ratio IC50” value in assay [2] and in assay [3] was greater than 9 each time. The half-maximal inhibitory concentration (IC50) in assay [4] is greater than 10 µM; in assay [5] it was greater than 10 µM; in assay [1] (setting [6]), 1090 nM.
With `COC(=O)c1sc(-c2ccco2)cc1S(=O)(=O)N1c2cc(Cl)ccc2NC(=O)C1C` (stereo unspecified), the “Ratio IC50” value in assay [2] and in assay [3] was greater than 5 each time. Also, the IC50 in assay [4] is greater than 10 µM; in assay [5] it was greater than 10 µM; in assay [1] (setting [6]) it was 1970 nM.
On to `CC1C(=O)Nc2ccc(Cl)cc2N1S(=O)(=O)c1cc(Cl)sc1-c1cnco1` (stereo unspecified), for which, in assay [1] (setting [6]), the IC50 was determined as 4440 nM.
For `CC1C(=O)Nc2ccc(Cl)cc2N1S(=O)(=O)c1ccsc1CNc1nccs1` (stereo unspecified), the IC50 entry in assay [1] (293et) is on record as “Not Active”.
With `CC1C(=O)Nc2ccc(Cl)cc2N1S(=O)(=O)c1ccsc1C=O` (stereo unspecified), the half-maximal inhibitory concentration (IC50) entry in assay [1] (293et) is “Not Active”.
Take `CC(C)=CCOC(=O)c1sccc1S(=O)(=O)N1c2cc(Cl)ccc2NC(=O)C1C` (stereo unspecified): the “Ratio IC50” value in assay [2] and in assay [3] was greater than 13 in each case. Besides, the IC50 in assay [4] was greater than 10 µM; in assay [5], greater than 10 µM; in assay [1] (setting [6]), 770 nM.
For `CC1C(=O)Nc2ccc(Cl)cc2N1S(=O)(=O)c1cc(Cl)sc1C=O` (stereo unspecified), the IC50 result in assay [1] (293et) is on record as “Not Active”.
Take `COC(=O)c1sc(-c2cccs2)cc1S(=O)(=O)N1c2cc(Cl)ccc2NC(=O)C1C` (stereo unspecified): the IC50 in assay [1] (setting [6]) amounted to 6530 nM.
Turning to `CC1C(=O)Nc2ccc(Cl)cc2N1S(=O)(=O)c1cc(Cl)sc1C(=O)O` (stereo unspecified), the IC50 result in assay [1] (293et) is reported as “Not Active”.
Take `Cc1ccnc2c1NC(=O)c1cccnc1N2C1CC1` [NEVIRAPINE]: the “Ratio IC50” value was greater than 250 in assay [2] and 32 in assay [3]. Besides, the values for the IC50 in assay [4], in assay [5] and in assay [1] (setting [6]) were greater than 10 µM, 1.29 µM and 40 nM, respectively.
`COC(=O)c1sc(-c2cccc(OC)c2)cc1S(=O)(=O)N1c2cc(Cl)ccc2NC(=O)C1C` (stereo unspecified): the IC50 in assay [1] (setting [6]) worked out at 9680 nM.
For `CC1C(=O)Nc2ccc(Cl)cc2N1S(=O)(=O)c1ccsc1C(=O)O` (stereo unspecified), the IC50 entry in assay [1] (293et) is “Not Active”.
Take `CC1C(=O)Nc2ccc(Cl)cc2N1S(=O)(=O)c1cc(Cl)sc1CO` (stereo unspecified): the IC50 result in assay [1] (293et) was “Not Active”.
Same read-out and setting: with `CC1C(=O)Nc2ccc(Cl)cc2N1S(=O)(=O)c1ccsc1/C=N\c1nccs1` (stereo unspecified) the entry was “Not Active”.
